Key:
[1] = Phosphate Binding Assay (excess phosphate, pH 3.0, 37° C., ion chromatography); settings: 2.5 mg La2(CO3)3/mL phosphate solution, 60 minutes; for Binding Capacity, Ground Tablet: whole tablet coarsely ground before analysis; for Binding Capacity, Whole Tablet: whole tablet without further modification
Description: Table II describes the phosphate binding ability of the prepared Examples in either whole or ground tablet form. The ground tablets simulate a chewable tablet formulation after chewing has occurred. Phosphate binding ability is a term used to predict the amount of phosphate that can be bound by a sequestrant under conditions which employ a large excess of phosphate, such as those found in the stomach. Mazzeo, J. R.; et. al. Journal of Pharmaceutical and Biomedical Analysis 1999, vol. 19, pps. 911-915. This assay, which utilizes a large excess of phosphate, is therefore a better functional model of biological conditions than the assay described in U.S. Pat. No. 5,968,976 which utilizes only two molar equivalents of phosphate ion per mole of lanthanum carbonate.
The uncoated, compressed tablets obtained from Examples 1-17 were assessed for phosphate binding ability. Whole tablets, prepared as described above, as well as coarsely ground tablets were both examined.
i. Preparation of stock phosphate solution:
21.4 g N,N-bis(hydroxyethyl)-2-aminoethanesulfonic acid, 4.7 g NaCl, and 2.7 g KH2PO4 (ultra high purity) were added to a 1000 mL volumetric flask and dissolved in 950 mL DI H2O. The pH was then adjusted to 3.0 (±0.05) with HCl, and the solution was diluted to volume with DI H2O and mixed.
The lanthanum carbonate complex was added to the stock phosphate solution so that the final concentration was 2.5 mg La2(CO3)3/mL phosphate solution. The mixture was heated at 37° C. for 60 minutes with constant swirling. It was then filtered through a 0.2 μm nylon filter.
The sample was then diluted to allow injection into the ion chromatograph. Here, a dilution factor of 100 was used: a 1.0 mL aliquot was removed and diluted volumetrically to 100 mL with DI water.
iii. Phosphate Measurement
The amount of unbound phosphate was determined by ion chromatography on a Dionex ICS-1500 ion chromatograph equipped with a conductivity cell (35° C.) and a Dionex MRS 300 4 mm auto suppressor. Material was eluted through a Dionex AG11-HC guard column (4×50 mm) and a Dionex AS11-HC column (4×250 mm) at 1.0 mL/min using 25 mM NaOH in DI H2O as the mobile phase. The sample response was then recorded by a computerized chromatography data system.
iv. Construction of Phosphate Calibration Curve
The linearity of the response was verified as follows. A series of standards over a wide range of free phosphate concentration (approximately 0.04, 0.06, 0.10, 0.15, 0.20, and 0.25 mM) were prepared and their ion chromatographic responses were determined. A plot of free phosphate concentration (mM) vs. response was then constructed. The slope and y-intercept of the resulting linear regression plot were then determined.
The phosphate binding capacity was calculated from the following equations.

[2] = Disintegration of uncoated, compressed tablets in deionized water (USP <701>); type: physicochemical; settings: whole, intact tablet in deionized water; single tablet per example
Experimental: The uncoated, compressed tablets were assessed for disintegration. The disintegration time was measured using the procedure and apparatus as described by physical test <701>, Disintegration, from The United States Pharmacopeia, Volume 29. The disintegration of a single tablet from each example was measured.

Binding Capacity, Ground Tablet [1] | Binding Capacity, Whole Tablet [1] | Disintegration Time [2] [h] | Compound
3.6 mmol PO4-2/g La2(CO3)3 | 0.8 mmol PO4-2/g La2(CO3)3 | >7 | O.O.O.O.O.O.O.O.O.O.O.O.O.O.O=C([O-])[O-].O=C([O-])[O-].O=C([O-])[O-].[La+3].[La+3] [Example 16, La2(CO3)3•14H20]
3.0 mmol PO4-2/g La2(CO3)3 | 0.7 mmol PO4-2/g La2(CO3)3 | 5 | O=C([O-])[O-].O=C([O-])[O-].O=C([O-])[O-].[La+3].[La+3] [Example 14, La2(CO3)3•5H20]
3.0 mmol PO4-2/g La2(CO3)3 | 0.6 mmol PO4-2/g La2(CO3)3 | >7 | O.O.O.O.O.O.O.O.O=C([O-])[O-].O=C([O-])[O-].O=C([O-])[O-].[La+3].[La+3] [Example 15, La2(CO3)3•8H20]
